Values joined by “and” are separate entries in the source; they are usually repeats but may differ in a detail not shown here. Equal entries are not always repeated.
Test system: OVCAR-5 complex spheroids with HUVEC/MSC, viability, % test/control
Assay: Anticancer human tumor OVCAR-5 cell line growth inhibition [AhR];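 note: spheroids exposed to compounds for 7 days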;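 for viability, T/C: 100% = DMSO vehicle control wells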
Conditions: for viability, T/C: stronger effect = lower value
Source text: Multicellular complex tumor spheroid response to aryl hydrocarbon receptor antagonists in combination with a variety of drugs and investigational agents in selected tumor cell lines
The current study was undertaken to assess response to aryl hydrocarbon receptor antagonists in combination with standard-of-care drugs and investigational agents in solid tumor complex spheroid models. Complex spheroids include a stromal component modeled by human endothelial cells (HUVEC) and fibroblasts modeled by human mesenchymal stem cells (MSCs). The concentration ranges selected for each drug and investigational agent were based upon clinically achievable concentrations if the clinical Cmax of the agent was known.
Compounds. The drugs and investigational agents: BAY 2416964 (NSC825713), GNF351 (NSC835774), CH-223191 (NSC835775), CPI-455 (NSC825282), aza-TdCyd (NSC777586), decitabine (NSC127716), belinostat (NSC758774), entinostat (NSC756642), pevonedistat (NSC761192), tazemetostat (NSC777109), talazoparib (NSC765396), olaparib (NSC753686), selinexor (NSC780203), nedisertib (M3814, NSC802822), bortezomib (NSC756655), venetoclax (NSC766270), doxorubicin (NSC123127), elimusertib (BAY189344, NSC800525), ceralasertib (AZD6738, NSC777638), TAK-243 (NSC785004), alisertib (NSC759677), etoposide (NSC141540), topotecan (NSC609699), eribulin (NSC707389), gemcitabine (NSC613327), carboplatin (NSC241240), cisplatin (NSC119875), and SN-38 (NSC673596) were obtained from the National Cancer Institute (NCI) Developmental Therapeutics Program Chemical Repository (32). The FDA-approved anticancer drug set is available from the Developmental Therapeutics Program at https://dtp.cancer.gov/organization/dscb/obtaining/available plates.htm. […] The stock solutions were prepared in dimethyl sulfoxide (DMSO, Sigma-Aldrich, St. Louis, MO, cat. D2650), except for the platinum compounds which were prepared in saline (Quality Biological, Gaithersburg, MD, cat. 114-055-101), at 800-fold the tested concentration and stored at -70 degrees C prior to their use. All drugs and investigational agents were tested over a range starting from a high concentration at or near the clinical Cmax and decreasing in half-log increments. If the clinical Cmax for an agent had not been determined, the highest concentration tested was 10 microM (Table 1).
Cell Culture. All cells were maintained in an incubator at 37 degrees C and 5% CO2 with 95% humidity. The PDC lines were cultured according to standard operating procedures established by the NCI PDMR (https://pdmr.cancer.gov). Briefly, all PDCs were thawed and cultured in Matrigel-coated flasks prepared with a working solution of 1X Ham's F-12 nutrient mix, without supplementation (Invitrogen, Waltham, MA, cat. 11765054), 100 U/mL penicillin-streptomycin (Invitrogen, cat. 15140122), and 2.5% Matrigel (Corning Inc., Corning, NY, cat. 354248) for the first three passages. All PDCs were cultured in complete DMEM/F-12 media containing advanced DMEM/F-12 (Invitrogen, cat. 12634028), 4.9% defined fetal bovine serum, heat inactivated (HyClone Laboratories Inc., Logan, UT, cat. SH30070.03HI), 389 ng/mL hydrocortisone (Sigma-Aldrich, cat. H4001), 9.7 ng/mL human EGF recombinant protein (Invitrogen, cat. PHG0313), 23.4 microg/mL adenine (Sigma-Aldrich, cat. A2786), 97.3 U/mL penicillin-streptomycin (Invitrogen, cat. 15140122), 1.9 mM L-glutamine (Invitrogen, cat. 25030081), and 9.7 microM Y-27632 dihydrochloride (Tocris Bioscience, Bristol, United Kingdom, cat. 1254). The PDCs were cultured in complete DMEM/F12 media without 10 microM Y-27632 dihydrochloride for at least two passages prior to the screen. The established cell lines NCI-H1341 and […] were cultured in DMEM/F-12, HEPES (Invitrogen, cat. 11330032), 5% defined fetal bovine serum (HyClone Laboratories Inc., cat. SH30070.03), ITS premix universal culture supplement [insulin (5 microg/mL), transferrin (5 microg/mL), and selenious acid (5 ng/mL)] […]

Compound | viability, T/C (compound 0.0316 µM) | viability, T/C (compound 0.1 µM) | viability, T/C (compound 0.316 µM) | viability, T/C (compound 1 µM) | viability, T/C (compound 3.16 µM) | viability, T/C (compound 10 µM) | IC50 (curve of compound) | also measured
COc1ccc([C@@H](O)c2cc(-c3ncnc4cc(N5CCOCC5)ccc34)c(F)cc2Cl)nn1 | 104% and 96.5% and 91.2% | 101% and 96.4% and 97.7% | 95.6% and 86.5% and 85% | 76.2% and 70.7% and 63.6% | 48.4% and 41.8% and 38.3% | 23% and 23.6% and 18.7% | 2930 nM and 2290 nM and 1850 nM | 
COc1cccc2c1C(=O)c1c(O)c3c(c(O)c1C2=O)CC(O)(C(=O)CO)CC3OC1CC(N)C(O)C(C)O1 (configuration not stated) | 66.2% and 56.6% and 74% | 55.2% and 47.4% and 58.4% | 49.6% and 41.8% and 46.6% | 28.7% and 24.1% and 25.6% | 1.66% and 1.72% and 3.06% | 1.46% and 1.1% and 1.11% | 316 nM and 114 nM and 223 nM | 
Cc1cncc(-c2nc(NCCc3c[nH]c4ccccc34)c3ncn(C(C)C)c3n2)c1 |  | 98.8% [middle of 20 runs] | 97.6% [middle of 19 runs] | 92.7% [middle of 20 runs] | 78.4% [middle of 20 runs] |  |  | IC50 (compound alone, run of 08/16/2022): 5.52 µM [middle of 22 runs]
Cn1ncnc1C1c2n[nH]c(=O)c3cc(F)cc(c23)NC1c1ccc(F)cc1 (configuration not stated) | 101% and 92.3% and 97.3% | 95.8% and 88% and 91.3% |  |  |  |  | > 100 nM | viability, T/C (compound 0.000316 µM): 104% and 100% and 102%; viability, T/C (compound 0.001 µM): 101% and 99% and 103%; viability, T/C (compound 0.00316 µM): 105% and 94.4% and 102%; viability, T/C (compound 0.01 µM): 98.9% and 92.5% and 97.6%
NS(=O)(=O)OCC1CC(n2ccc3c(NC4CCc5ccccc54)ncnc32)CC1O (configuration not stated) | 99.8% and 98.4% and 111% | 74.2% and 68.1% and 75% | 41.8% and 38.4% and 42.8% | 21.2% and 16.9% and 19.1% | 14.8% and 11.5% and 13% | 11.8% and 9.65% and 11.2% | 235 nM and 197 nM | 
Nc1ccccc1NC(=O)c1ccc(CNC(=O)OCc2cccnc2)cc1 | 92.2% and 93.7% and 84.8% | 90.3% and 88.7% and 81.2% | 75.1% and 77.2% and 67.5% | 53.3% and 52.3% and 33.1% | 23.5% and 21.1% and 19.9% | 9.94% and 8.4% and 7.9% | 1080 nM and 1050 nM and 580 nM | 
Nc1ccn(C2OC(CO)C(O)C2(F)F)c(=O)n1 (configuration not stated) | 32.6% and 27.9% and 33.8% | 30.9% and 25.9% and 30.5% | 31.4% and 27.5% and 30.8% | 31.7% and 27.9% and 31.9% | 32.3% and 29.7% and 33.2% | 31.7% and 27.8% and 29.7% | < 31.6 nM | 
Nc1ncn(C2CC(O)C(CO)O2)c(=O)n1 (configuration not stated) | 94% and 94.8% and 88.5% | 82.6% and 82.3% and 82% | 76% and 70.8% and 68.8% | 65% and 59.9% and 63.7% |  |  | > 1000 nM | viability, T/C (compound 0.00316 µM): 101% and 99.1% and 104%; viability, T/C (compound 0.01 µM): 97.8% and 103% and 98.1%
Nc1ncn(C2CC(O)C(CO)S2)c(=O)n1 (configuration not stated) |  |  |  |  |  |  | > 300 nM | viability, T/C (compound 0.000949 µM): 103% and 101% and 99.6%; viability, T/C (compound 0.003 µM): 96.8% and 106% and 99.3%; viability, T/C (compound 0.00949 µM): 102% and 103% and 97.4%; viability, T/C (compound 0.03 µM): 99.8% and 99.5% and 105%; viability, T/C (compound 0.0949 µM): 91.7% and 90.7% and 99%; viability, T/C (compound 0.3 µM): 83.8% and 77.6% and 83.7%
O=C(C=Cc1cccc(S(=O)(=O)Nc2ccccc2)c1)NO | 94.1% and 97.8% and 90.4% | 93.2% and 88% and 88.8% | 76.5% and 73.4% and 70.6% | 59.4% and 55.6% and 52.8% | 30.6% and 24.4% and 27.7% | 7.78% and 5.16% and 5.95% | 1410 nM and 1120 nM and 1110 nM | 
O=C(C=Cn1cnc(-c2cc(C(F)(F)F)cc(C(F)(F)F)c2)n1)NNc1cnccn1 |  |  |  |  |  |  | 2560 nM and 1610 nM and 1710 nM | viability, T/C (compound 0.00949 µM): 109% and 108% and 104%; viability, T/C (compound 0.03 µM): 108% and 109% and 105%; viability, T/C (compound 0.0949 µM): 101% and 99.5% and 96.1%; viability, T/C (compound 0.3 µM): 85.9% and 76.1% and 78.1%; viability, T/C (compound 0.949 µM): 68.2% and 58.4% and 60.8%; viability, T/C (compound 3 µM): 47% and 42% and 40.6%
O=C(c1cc(Cc2n[nH]c(=O)c3ccccc23)ccc1F)N1CCN(C(=O)C2CC2)CC1 | 98.3% and 103% and 100% | 97.6% and 99% and 96.8% | 92.4% and 97.2% and 96.1% | 93% and 93.2% and 98.6% | 90.9% and 91% and 92.9% | 83.3% and 83.5% and 84.2% | > 10000 nM | 

— PubChem BioAssay AID1919015 (Molecular Pharmacology Branch, DTP, NCI, 2023)
